Numbered stars: 1 amine (or outer) side, 2 acyl side, 3 side chain; on linkers, the order of the positions; unused ones are H or OH. Bridge positions count the residues as written; N and C are the ends. Square brackets hold non-standard residues; d marks the D form. Peptide text beside a SMILES is read from it. * marks the point of attachment. hPhe(3-Cl-4-CF3) = N[C@@H](CCc1ccc(C(F)(F)F)c(Cl)c1)C(=O)O; hPhe(3-F,4-CF3) = N[C@@H](CCc1ccc(C(F)(F)F)c(F)c1)C(=O)O; X56 = O=C([C@H](CCc1cccc(C(F)(F)F)c1)N[*:1])[*:2]; hPhe(4-CF3) = N[C@@H](CCc1ccc(C(F)(F)F)cc1)C(=O)O; NMePhe(4-Cl) = CN[C@@H](Cc1ccc(Cl)cc1)C(=O)O; NMePhe(4-Me) = CN[C@@H](Cc1ccc(C)cc1)C(=O)O; X99 = O=C([C@H](CCc1ccc(F)cc1F)N[*:1])[*:2]; NMeNle(6-CHF2) = CN[C@@H](CCCCC(F)F)C(=O)O; NMePhe(2-Cl) = CN[C@@H](Cc1ccccc1Cl)C(=O)O; X5 = CCN([C@@H](CC1CCCCC1)C(=O)[*:2])[*:1]; X133 = O=C(C[C@H](N[*:1])C(F)(F)F)[*:2]; NMeGly(cPent) = CN[C@H](C(=O)O)C1CCCC1; NMeCha = CN[C@@H](CC1CCCCC1)C(=O)O; NMeF = CN[C@@H](Cc1ccccc1)C(=O)O; NMeI = CC[C@H](C)[C@H](NC)C(=O)O; NMeT = CN[C@H](C(=O)O)[C@@H](C)O; NMeD = CN[C@@H](CC(=O)O)C(=O)O; NMeL = CN[C@@H](CC(C)C)C(=O)O; NMeV = CN[C@H](C(=O)O)C(C)C; d(β3hA) = C[C@@H](N)CC(=O)O; NMeS = CN[C@@H](CO)C(=O)O; Morpholide = C1CN(*)CCO1; NMeA = CN[C@@H](C)C(=O)O; Piperidide = C1CCN(*)CC1; Ac5c = NC1(C(=O)O)CCCC1; Aze = O=C(O)[C@@H]1CCN1; Aib = CC(C)(N)C(=O)O; Bn = c1ccc(C*)cc1; Sar = CNCC(=O)O; Propyl = CCC*

This assay has as its target protein-protein interaction between Kras and SOS1 (biotin-tagged human Kras loaded with GDP, His-tagged human SOS1) (Homo sapiens (Human), UniProt P01116, G12D). Briefly: Protein-protein interaction inhibition between Kras and SOS1 (KrasG12D-SOS PPI) using AlphaScreen.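 Note: kras produced in E. coli, Ni-coupled donor beads and streptavidin acceptor beads, excitation 680 nm with emission detected at 520–620 nm via singlet oxygen transfer.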 Type of assay: biochemical. The conditions noted are these: AlphaScreen; biotin-tagged human Kras loaded with GDP, His-tagged human SOS1; read-out: KRAS G12D-SOS PPI IC50. A general note: Bead proximity is the source of the signal in Alpha formats.
For `CC[C@H](C)[C@@H]1NC(=O)[C@H](C)N(C)C(=O)C[C@@H](C)NC(=O)[C@H](CC(C)C)N(C)C(=O)[C@H](Cc2ccccc2)N(C)C(=O)[C@H](CC(C)C)NC(=O)[C@H](CCc2ccc(F)cc2F)NC(=O)CN(C)C(=O)[C@H](Cc2ccc(Cl)cc2)N(C)C(=O)CN(C)C(=O)CN(C)C1=O` [Compound 2089] (cyclo(I[Sar][Sar][NMePhe(4-Cl)][Sar][X99]L[NMeF][NMeL][d(β3hA)][NMeA])), the IC50 worked out at 0.3 µM.
As for `CC[C@H](C)[C@@H]1NC(=O)[C@H](C)N(C)C(=O)C[C@@H](C(=O)N2CCCCC2)N(C)C(=O)[C@H](C(C)C)N(C)C(=O)C2(CCCC2)NC(=O)[C@H](Cc2ccccc2Cl)N(C)C(=O)[C@H](CCc2ccc(C(F)(F)F)c(Cl)c2)NC(=O)CN(C)C(=O)[C@H](Cc2ccc(C)cc2)N(C)C(=O)CN(C)C(=O)CN(C)C1=O` [Compound 2007] ([NMeA]I[Sar][Sar][NMePhe(4-Me)][Sar][hPhe(3-Cl-4-CF3)][NMePhe(2-Cl)][Ac5c][NMeV][NMeD]-Piperidide; lactam N-11), the figure is 0.23 µM.
With `CC[C@H](C)[C@@H]1NC(=O)[C@H](C)N(C)C(=O)C[C@@H](C)NC(=O)[C@H](CC(C)C)N(C)C(=O)[C@H](Cc2ccccc2)N(C)C(=O)[C@H](CC(C)C)NC(=O)[C@H](CCc2cccc(C(F)(F)F)c2)NC(=O)CN(C)C(=O)[C@H](Cc2ccc(Cl)cc2)N(C)C(=O)CN(C)C(=O)CN(C)C1=O` [Compound 2095] (cyclo(I[Sar][Sar][NMePhe(4-Cl)][Sar][X56]L[NMeF][NMeL][d(β3hA)][NMeA])), the IC50 turned out to be 0.24 µM.
As for `CC[C@H](C)[C@@H]1NC(=O)[C@H](CC(C)C)N(C)C(=O)C[C@@H](C(F)(F)F)NC(=O)[C@H]([C@@H](C)CC)N(C)C(=O)C2(CCCC2)NC(=O)[C@@H]2CCCN2C(=O)[C@H](CCc2ccc(C(F)(F)F)c(Cl)c2)NC(=O)CN(C)C(=O)[C@H](Cc2ccc(C)cc2)N(C)C(=O)[C@@H]2CCN2C(=O)[C@H](C)N(C)C1=O` [Compound 1919] (cyclo([Ac5c][NMeI][X133][NMeL]I[NMeA][Aze][NMePhe(4-Me)][Sar][hPhe(3-Cl-4-CF3)]P)), the figure is 0.21 µM.
As for `CCCOC[C@H]1C(=O)N(C)CC(=O)N[C@@H](CCc2ccc(C(F)(F)F)c(F)c2)C(=O)N2CCC[C@H]2C(=O)NC2(CCCC2)C(=O)N(C)[C@@H]([C@@H](C)CC)C(=O)N(C)[C@H](C(=O)N2CCOCC2)CC(=O)N(C)[C@@H](CC(C)C)C(=O)N[C@@H]([C@@H](C)CC)C(=O)N(C)[C@@H](C)C(=O)N2CC[C@H]2C(=O)N1C` [Compound 827] ([NMeL]I[NMeA][Aze][NMeS](Propyl)[Sar][hPhe(3-F,4-CF3)]P[Ac5c][NMeI][NMeD]-Morpholide; lactam N-11), the figure is 0.0028 µM; as for `CC[C@H](C)[C@@H]1NC(=O)[C@H](CC(C)C)N(C)C(=O)C[C@@H](C)NC(=O)[C@H](C2CCCC2)N(C)C(=O)C2(CCCC2)NC(=O)[C@@H]2CCCN2C(=O)[C@H](CCc2ccc(C(F)(F)F)c(Cl)c2)NC(=O)CN(C)C(=O)[C@H](CC2CCCCC2)N(C)C(=O)[C@@H]2CCN2C(=O)[C@H](C)N(C)C1=O` [Compound 1477] (cyclo([Ac5c][NMeGly(cPent)][d(β3hA)][NMeL]I[NMeA][Aze][NMeCha][Sar][hPhe(3-Cl-4-CF3)]P)), 0.028 µM.
The result for `CC[C@H](C)[C@@H]1NC(=O)[C@H](CC(C)C)N(C)C(=O)C[C@@H](C(=O)N2CCCCC2)N(C)C(=O)[C@H](C(C)C)N(C)C(=O)C2(CCCC2)NC(=O)[C@@H]2CCCN2C(=O)[C@H](CCc2ccc(C(F)(F)F)c(Cl)c2)NC(=O)CN(C)C(=O)[C@H](CC2CCCCC2)N(CC)C(=O)[C@@H]2CCN2C(=O)[C@H](C)N(C)C1=O` [Compound 23] ([NMeL]I[NMeA][Aze][X5][Sar][hPhe(3-Cl-4-CF3)]P[Ac5c][NMeV][NMeD]-Piperidide; lactam N-11) reads 0.0027 µM; that for `CC[C@H](C)[C@@H]1NC(=O)[C@H](CC(C)C)N(C)C(=O)C[C@@H](C(=O)N2CCCCC2)N(C)C(=O)[C@H](C(C)C)N(C)C(=O)C2(CCCC2)NC(=O)[C@@H]2CCCN2C(=O)[C@H](CCc2ccc(C(F)(F)F)c(Cl)c2)NC(=O)CN(C)C(=O)[C@H](CCCCC(F)F)N(C)C(=O)[C@@H]2CCN2C(=O)[C@H](C)N(C)C1=O` [Compound 78] ([NMeL]I[NMeA][Aze][NMeNle(6-CHF2)][Sar][hPhe(3-Cl-4-CF3)]P[Ac5c][NMeV][NMeD]-Piperidide; lactam N-11), 0.0016 µM; that for `CC[C@H](C)[C@@H]1NC(=O)[C@H](C)N(C)C(=O)C[C@@H](C)NC(=O)[C@H](CC(C)C)N(C)C(=O)C(C)(C)NC(=O)[C@H](CC(C)C)N(C)C(=O)[C@H](CCc2ccc(C(F)(F)F)cc2)NC(=O)CN(C)C(=O)[C@H]([C@@H](C)OCc2ccccc2)N(C)C(=O)CN(C)C(=O)CN(C)C1=O` [Compound 1067] (cyclo([Aib][NMeL][d(β3hA)][NMeA]I[Sar][Sar][NMeT](Bn)[Sar][hPhe(4-CF3)][NMeL])), 0.29 µM.

One may read the IC50 as the midpoint of a concentration-inhibition curve.
